Measurements: patent US4732890A, “Retro-inverso hexapeptide neurotensin analogs, process for their preparation and pharmaceutical compositions containing them” (Eniricerche S.p.A., priority 1985, dated 1988)

What was measured:
[1] = cited from earlier work
male rats = experiment: Blood pressure after i.v. injection in urethane-anesthetized male rats; assay type: in vivo, rat; details: 20 meq/Kg; for Arterial pressure: i.v. right femoral vein, basal 80-130 mmHg; for Pressure Δ: i.v., versus basal 80-130 mmHg
Procedure: Typically, male rats weighing about 200-300 g, anesthetized with urethane (1.75 g/Kg i.p.), were employed in these tests and the hexapeptide [drawing 9] was administered by i.v. injection in the right femoral vein at a dosage of 20 meq/Kg body weight.
Blood pressure was recorded at different times following the injection.
The basal values were on the average 80-130 mmHg.

| Substance | in vivo biological activity relative to NT [1] | Arterial pressure (male rats; 30' from admin.) | Pressure Δ (male rats; 30' from admin.) | Arterial pressure (male rats; 1 h from admin.) | Pressure Δ (male rats; 1 h from admin.) | Arterial pressure (male rats; 2 h from admin.) | Pressure Δ (male rats; 2 h from admin.) | Arterial pressure (male rats; 2.5 h from admin.) | Pressure Δ (male rats; 2.5 h from admin.) | Arterial pressure (male rats; 3.5 h from admin.) | Pressure Δ (male rats; 3.5 h from admin.) | Arterial pressure (male rats; 4.5 h from admin.) | Pressure Δ (male rats; 4.5 h from admin.) | Arterial pressure (male rats; 5 h from admin.) | Pressure Δ (male rats; 5 h from admin.) | Arterial pressure (male rats; 6 h from admin.) | Pressure Δ (male rats; 6 h from admin.) |
| --- | --- | --- | --- | --- | --- | --- | --- | --- | --- | --- | --- | --- | --- | --- | --- | --- | --- |
| Arg-Arg-Pro-Tyr-Ile-Leu (RRPYIL; printed: Arg-Arg-Pro-Tyr-Ile-Leu) [C-terminal hexapeptide, C-terminal hexapeptide fragment of NT] | much lower than NT itself | – | – | – | – | – | – | – | – | – | – | – | – | – | – | – | – |
| Arginyl-arginyl-prolyl-tyrosyl-gem diamino-isoleucyl-(R,S)malonyl-leucine [Example 1] | – | 80-125 mmHg | 0-5 | 75-125 mmHg | 5-5 | 75-125 mmHg | 5-5 | 75-120 mmHg | 5-10 | 75-120 mmHg | 5-10 | 70-110 mmHg | 10-20 | 70-110 mmHg | 10-20 | 65-105 mmHg | 15-25 |
